Assay results reported in patent publication US11744816B2, “Fixed dose combinations and formulations comprising ETC1002 and ezetimibe and methods of treating or reducing the risk of cardiovascular disease” (Esperion Therapeutics, Inc., priority 2015, dated 2023).

How the values were obtained:
[1] = tested on: hypercholesterolemic patients; test: Phase 2b double-blind trial: percent changes from baseline to week 12 in lipids and CRP; assay type: in vivo, human
Procedure: LDL-C was calculated using the Friedewald equation.
The primary endpoint was the percent change from baseline to week 12 in calculated LDL-C in patients treated with ETC-1002 monotherapy versus those treated with EZE alone. Secondary endpoints included the dose-response relationship between ETC-1002 and the percent change in LDL-C from baseline to week 12, the percent change in LDL-C from baseline to week 12 in patients treated with ETC-1002 plus EZE versus those treated with EZE alone, and the percent change from baseline to week 12 for all treatment groups in LDL particle number, apolipoprotein B, total cholesterol, non-high-density lipoprotein cholesterol (non-HDL-C), HDL-C, HDL particle number, apolipoprotein A-I, triglycerides, very-low-density lipoprotein (VLDL) particle number, and high-sensitivity C-reactive protein (CRP). Lipoprotein particle number was measured using nuclear magnetic resonance […].
An analysis of covariance was used to compare each ETC-1002 treatment group with EZE monotherapy for each of the efficacy endpoints. The primary model included the effects of treatment and statin intolerance and the baseline value as a covariate. Baseline was defined as the mean of values from weeks −1 and 0 for LDL-C, non-HDL-C, total cholesterol, HDL-C, and triglycerides. For all other lipid and biomarker measures, baseline was defined as the last value before the first dose of study drug. Missing values at week 12 were imputed using the last-observation-carried-forward procedure. When LDL-C could not be calculated (i.e., triglycerides >400 mg/dL), beta-quantification measurements were used to determine LDL-C values. Least-squares (LS) means and standard errors were obtained for each treatment group; differences in LS means and p-values were obtained for the treatment comparisons. Graphical methods (e.g., normal probability plot and histogram of residuals, plot of residuals vs. predicted values) or analytical methods (e.g., Shapiro-Wilk test), or both, were used to assess the model assumptions. Because of departures from normality observed in the parameters of triglycerides, CRP, and VLDL particle number, nonparametric analyses were performed for these measures, with p-values obtained from the Wilcoxon rank-sum test and median values presented.
Percent changes from baseline in LDL-C also were summarized by statin-tolerance subgroup. To assess the dose-response relationship for ETC-1002 monotherapy, the primary analysis of covariance model was used for the comparison of the ETC-1002 120 mg and ETC-1002 180 mg. Statistical testing of the efficacy endpoints was 2-sided and conducted at the 5% level of significance with no adjustment for multiple comparisons.

[2] = tested on: hypercholesterolemic patients; test: Phase 2b double-blind trial: safety, treatment-emergent adverse events and laboratory abnormalities
Procedure: The study population included both statin-tolerant and statin-intolerant participants. Statin intolerance was defined as the inability to tolerate ≥2 statins because of muscle-related symptoms such as pain, weakness, or cramping that began or increased during statin therapy and resolved on statin discontinuation. At least 1 statin must have been administered at the lowest approved daily dose, defined as rosuvastatin 5 mg, atorvastatin 10 mg, simvastatin 10 mg, lovastatin 20 mg, pravastatin 40 mg, fluvastatin 40 mg, or pitavastatin 2 mg. Treatment with less than the lowest approved daily dose of a statin (i.e., skipping days) was considered equivalent to not tolerating 1 statin at the lowest approved daily dose.
Patients underwent a 5-week washout of all lipid-regulating drugs and dietary supplements and abstained from these drugs and supplements throughout the study. Patients also underwent a 5-week patient-only-blinded placebo run-in during the screening period (week −5 to week 0). This single-blind placebo run-in period was used to eliminate patients with muscle-related AEs during placebo treatment. Patients reporting new or worsening, unexplained muscle-related AEs during this run-in period were excluded from the study.
Patients were stratified (1:1) by history of statin intolerance and randomized at week 0 in a 4:4:4:1:1 ratio to once-daily treatment with capsules containing ETC-1002 120 mg, ETC-1002 180 mg, EZE, ETC-1002 120 mg plus EZE, or ETC-1002 180 mg plus EZE.
The safety of ETC-1002 was assessed using treatment-emergent AEs; hematology, serum chemistry, and urinalysis laboratory values; physical examination findings, vital sign measurements, electrocardiogram (ECG) readings; weight; and ankle and waist circumference measurements. AEs were coded using the Medical Dictionary for Regulatory Activities version 16.0 and evaluated by the investigator for severity and relation to study drug. Muscle-related AEs were defined as those from the system organ class of musculoskeletal and connective tissue disorders, except for those that were not obviously muscle related Terms included in the muscle-related AFE analysis were selected from this system organ class after database lock and before unblinding.
Safety analyses were performed on the safety population, which included randomized patients who received at least 1 dose of study drug. Baseline patient characteristics were summarized for the safety population by treatment group and statin-tolerance subgroup.
Muscle-related AEs also were summarized by statin-tolerance subgroup.

[3] = EZE 10 mg once daily, 12 weeks, mITT, LS mean ± SE
[4] = EZE 10 mg once daily, 12 weeks, safety population
[5] = EZE 10 mg once daily, 12 weeks, statin-intolerant patients
[6] = EZE 10 mg once daily, 12 weeks, statin-tolerant patients

`O=C1[C@H](CC[C@H](O)c2ccc(F)cc2)[C@@H](c2ccc(O)cc2)N1c1ccc(F)cc1` [EZE, (3R,4S)-1-(4-fluorophenyl)-3-[(3S)-3-(4-fluorophenyl)-3-hydroxypropyl]-4-(4-hydroxyphenyl)azetidin-2-one, reference compound] was tested, and the “Percent change from baseline to week 12 in Apolipoprotein A-I” value [1, 3] was 2.0 ± 1.1%, the “Percent change from baseline to week 12 in Apolipoprotein B” value [1, 3] was −15.2 ± 1.2% and the “Percent change from baseline to week 12 in HDL particle number” value [1, 3] was 6.7 ± 1.3%. The “Percent change from baseline to week 12 in HDL-C” value [1, 3] was 5.0 ± 1.4%, the “Percent change from baseline to week 12 in LDL particle number” value [1, 3] was −12.7 ± 1.7% and the “Percent change from baseline to week 12 in LDL-C” value [1, 3] was −21.2 ± 1.3%. For the same compound, the “Percent change from baseline to week 12 in Non-HDL-C” value [1, 3] was −18.7 ± 1.2%, the “Percent change from baseline to week 12 in Total cholesterol” value [1, 3] was −14.3 ± 0.9% and the “Percent change from baseline to week 12 in VLDL particle number” value ([1]; EZE 10 mg once daily, 12 weeks, mITT, median (interquartile range)) was −12.6 (63.4) %. For the same compound, the CRP reduction ([1]; EZE alone) was 10%, the HDL-C increase ([1]; EZE alone, week 12) was 5% and the “Alanine aminotransferase or aspartate aminotransferase, or both, increased >3 times the upper limit of normal at any measurement” value ([2]; EZE) was 1 patients. For the same compound, the “Serious AEs reported (events)” value ([2]; EZE) was “transient ischemic attack”, the “Most common AEs: ALT increased” value [2, 4] was 1 (1%) n (%) and the “Most common AEs: AST increased” value [2, 4] was 0 n (%). For the same compound, the “Most common AEs: Arthralgia” value [2, 4] was 4 (4%) n (%), the “Most common AEs: Back pain” value [2, 4] was 8 (8%) n (%) and the “Most common AEs: Blood CK increased” value [2, 4] was 1 (1%) n (%). The “Most common AEs: Constipation” value [2, 4] was 1 (1%) n (%), the “Most common AEs: Headache” value [2, 4] was 1 (1%) n (%) and the “Most common AEs: Myalgia” value [2, 4] was 6 (6%) n (%). The “Most common AEs: Nasopharyngitis” value [2, 4] was 4 (4%) n (%), the “Most common AEs: Upper respiratory tract infection” value [2, 4] was 1 (1%) n (%) and the “Most common AEs: Urinary tract infection” value [2, 4] was 6 (6%) n (%). The “Treatment-emergent AEs: Any AE(s)” value [2, 4] was 53 (54%) n (%), the “Treatment-emergent AEs: Discontinuation due to AE(s)” value [2, 4] was 8 (8%) n (%) and the “Treatment-emergent AEs: Serious AE(s)” value [2, 4] was 1 (1%) n (%). For the same compound, the “Treatment-emergent AEs: Study drug-related AE(s)” value [2, 4] was 19 (19%) n (%), the “Any muscle-related AE” value [2, 5] was 9 (18%) n (%) and the “Muscle-related AE leading to discontinuation” value [2, 5] was 5 (10%) n (%). The “Muscle-related AEs: Muscle spasms” value [2, 5] was 1 (2%) n (%), the “Muscle-related AEs: Muscular weakness” value [2, 5] was 1 (2%) n (%) and the “Muscle-related AEs: Musculoskeletal chest pain” value [2, 5] was 0 n (%). For the same compound, the “Muscle-related AEs: Musculoskeletal stiffness” value [2, 5] was 1 (2%) n (%), the “Muscle-related AEs: Myalgia” value [2, 5] was 6 (12%) n (%) and the “Muscle-related AEs: Pain in extremity” value [2, 5] was 3 (6%) n (%). The “Muscle-related AEs: Sensation of heaviness” value [2, 5] was 1 (2%) n (%), the “Any muscle-related AE” value [2, 6] was 3 (6%) n (%) and the “Muscle-related AE leading to discontinuation” value [2, 6] was 1 (2%) n (%). The “Muscle-related AEs: Muscle spasms” value [2, 6] was 2 (4%) n (%), the “Muscle-related AEs: Musculoskeletal pain” value [2, 6] was 1 (2%) n (%) and the “Muscle-related AEs: Myalgia” value [2, 6] was 0 n (%). The “Myalgia, patients affected” value ([2]; EZE alone, entire study population) was 6%.
